Data taken from patent US9493411B2 (AbbVie Inc., priority 2013, dated 2016).

Key:
[1] = biological target: T1, BRD4 (BDI_K57-E168) (Homo sapiens, UniProt O60885); assay: TR-FRET bromodomain binding assay, BRD4 first bromodomain; conditions: His-tagged BD1, Alexa647-labeled probe 100 nM; Ki calculated from IC50
T1 construct: BD1: amino acids K57-E168; made in house
Experimental: (§1) A time-resolved fluorescence resonance energy transfer (TR-FRET) assay was used to determine the affinities of compounds of the Examples listed in Table 1 for each bromodomain of BRD4. His-tagged first (BD1: amino acids K57-E168) and second (BD2: amino acids E352-E168) bromodomains of BRD4 were expressed and purified. An Alexa647-labeled BET-inhibitor was used as the fluorescent probe in the assay.
(§2) Compound dilution series were prepared in DMSO via a 3-fold serial dilution from 2.5 mM to 42 nM. Compounds were then diluted 6:100 in assay buffer (20 mM Sodium Phosphate, pH 6.0, 50 mM NaCl, 1 mM Ethylenediaminetetraacetic acid disodium salt dihydrate, 0.01% Triton X-100, 1 mM DL-Dithiothreitol) to yield 3× working solutions. Six microliters (μL) of the working solution was then transferred to white, low-volume assay plates (Costar #3673). A 1.5× assay mixture containing His-tagged bromodomain, Europium-conjugated anti-His antibody (Invitrogen PV5596) and the Alexa-647-conjugated probe molecule was also prepared. Twelve μL of this solution were added to the assay plate to reach a final volume of 18 μL. The final concentration of 1× assay buffer contains 2% DMSO, 50 μM-0.85 nM compound, 8 nM His-tagged bromodomain, 1 nM Europium-conjugated anti-His-tag antibody and 100 nM or 30 nM probe (for BDI or BDII, respectively). After a one-hour incubation at room temperature, TR-FRET ratios were determined using an Envision multilabel plate reader (Ex 340, Em […]).
(§3) TR-FRET data were normalized to the means of 24 no-compound controls (“high”) and 8 controls containing 1 μM un-labeled probe (“low”). Percent inhibition was plotted as a function of compound concentration and the data were fit with the 4 parameter logistic equation to obtain IC50s. Inhibition constants (Ki) were calculated from the IC50s, probe Kd and probe concentration. Typical Z′ values were between 0.65 and 0.75. The minimum significant ratio was determined to evaluate assay reproducibility (Eastwood et al., (2006) J Biomol Screen, 11: 253-261). The MSR was determined to be 2.03 for BDI and 1.93 for BDII, and a moving MSR (last six run MSR overtime) for both BDI and BDII was typically <3.

[2] = biological target: T2, BRD4 (BDII_E352-M457) (Homo sapiens, UniProt O60885); assay: TR-FRET bromodomain binding assay, BRD4 second bromodomain; conditions: His-tagged BD2, Alexa647-labeled probe 30 nM; Ki calculated from IC50
T2 construct: made in house
Experimental: as §1, §2, §3

Row | Compound | Ki [1] | Ki [2]
1 | Cc1[nH]c(-c2ccccc2NCc2cc(Cl)cc(Cl)c2)cc1C(N)=O [Example 39, 5-{2-[(3,5-dichlorobenzyl)amino]phenyl}-2-methyl-1H-pyrrole-3-carboxamide] | 3.82 µM | 4.98 µM
2 | Cc1[nH]c(-c2ccccc2NS(=O)(=O)C2CCCCC2)cc1C(N)=O [Example 79, 5-{2-[(cyclohexylsulfonyl)amino]phenyl}-2-methyl-1H-pyrrole-3-carboxamide] | 0.904 µM | 2.65 µM
3 | Cc1[nH]c(-c2ccccc2Oc2cccc3ccccc23)cc1C(N)=O [Example 140, 2-methyl-5-[2-(naphthalen-1-yloxy)phenyl]-1H-pyrrole-3-carboxamide] | 0.607 µM | 1.3 µM
4 | Cc1[nH]c(-c2ccccc2NCc2cccc(Cl)c2)cc1C(N)=O [Example 35, 5-{2-[(3-chlorobenzyl)amino]phenyl}-2-methyl-1H-pyrrole-3-carboxamide] | 2.7 µM | 3.26 µM
5 | Cc1[nH]c(-c2cc(NS(C)(=O)=O)ccc2Oc2ccccc2)cc1C(N)=O [Example 162, 2-methyl-5-{5-[(methylsulfonyl)amino]-2-phenoxyphenyl}-1H-pyrrole-3-carboxamide] | 0.0591 µM | 0.754 µM
6 | Cc1[nH]c(-c2ccccc2Nc2ccccc2)cc1C(N)=O [Example 77, 2-methyl-5-[2-(phenylamino)phenyl]-1H-pyrrole-3-carboxamide] | 0.172 µM | 0.983 µM
7 | Cc1[nH]c(-c2ccccc2NC2Cc3ccccc3C2)cc1C(N)=O [Example 69, 5-[2-(2,3-dihydro-1H-inden-2-ylamino)phenyl]-2-methyl-1H-pyrrole-3-carboxamide] | 0.663 µM | 2.34 µM
8 | Cc1[nH]c(-c2ccccc2NCc2cc(Br)cs2)cc1C(N)=O [Example 15, 5-(2-{[(4-bromothiophen-2-yl)methyl]amino}phenyl)-2-methyl-1H-pyrrole-3-carboxamide] | 2.58 µM | 2.31 µM
9 | CC(=O)Nc1ccccc1-c1cc(C(N)=O)c(C)[nH]1 [Example 2, 5-[2-(acetylamino)phenyl]-2-methyl-1H-pyrrole-3-carboxamide] | 2.92 µM | 21.5 µM
10 | Cc1[nH]c(-c2ccccc2NCC2CC2)cc1C(N)=O [Example 26, 5-{2-[(cyclopropylmethyl)amino]phenyl}-2-methyl-1H-pyrrole-3-carboxamide] | 0.86 µM | 7.53 µM
11 | Cc1[nH]c(-c2ccccc2NCc2ccc(F)cc2)cc1C(N)=O [Example 23, 5-{2-[(4-fluorobenzyl)amino]phenyl}-2-methyl-1H-pyrrole-3-carboxamide] | 3.52 µM | 3.53 µM
12 | Cc1[nH]c(-c2cccc3cc[nH]c23)cc1C(N)=O [Example 164, 5-(1H-indol-7-yl)-2-methyl-1H-pyrrole-3-carboxamide] | 1 µM | 2.03 µM
13 | Cc1[nH]c(-c2ccccc2NCc2ccc(CO)o2)cc1C(N)=O [Example 55, 5-[2-({[5-(hydroxymethyl)furan-2-yl]methyl}amino)phenyl]-2-methyl-1H-pyrrole-3-carboxamide] | 0.722 µM | 4.94 µM
14 | 2-methyl-5-[2-(pyridin-2-yloxy)phenyl]-1H-pyrrole-3-carboxamide [Example 131] | 9.4 µM | 22.2 µM
15 | Cc1[nH]c(-c2ccccc2NCc2ccc(Cl)cc2)cc1C(N)=O [Example 11, 5-{2-[(4-chlorobenzyl)amino]phenyl}-2-methyl-1H-pyrrole-3-carboxamide] | 2.87 µM | 2.51 µM
16 | Cc1[nH]c(-c2ccccc2NCc2ccc(C#N)cc2)cc1C(N)=O [Example 31, 5-{2-[(4-cyanobenzyl)amino]phenyl}-2-methyl-1H-pyrrole-3-carboxamide] | 1.4 µM | 6.23 µM
17 | Cc1[nH]c(-c2ccccc2NCc2ccc(C(F)(F)F)cc2)cc1C(N)=O [Example 28, 2-methyl-5-(2-{[4-(trifluoromethyl)benzyl]amino}phenyl)-1H-pyrrole-3-carboxamide] | 9.45 µM | 13.6 µM
18 | Cc1noc(C)c1-c1ccc(-c2cc(C(=O)NO)c(C)[nH]2)cc1 [Example 95, 5-[4-(3,5-dimethyl-1,2-oxazol-4-yl)phenyl]-N-hydroxy-2-methyl-1H-pyrrole-3-carboxamide] | 5.07 µM | 5.62 µM
19 | Cc1[nH]c(-c2ccccc2NCc2ccc(N)cc2)cc1C(N)=O [Example 52, 5-{2-[(4-aminobenzyl)amino]phenyl}-2-methyl-1H-pyrrole-3-carboxamide] | 3.08 µM | 16.4 µM
20 | Cc1[nH]c(-c2cc(CC(=O)O)ccc2OCc2ccccc2)cc1C(N)=O [Example 166, [4-(benzyloxy)-3-(4-carbamoyl-5-methyl-1H-pyrrol-2-yl)phenyl]acetic acid] | 0.63 µM | 10.5 µM
21 | Cc1[nH]c(-c2ccccc2Oc2ccc(C#N)cc2)cc1C(N)=O [Example 123, 5-[2-(4-cyanophenoxy)phenyl]-2-methyl-1H-pyrrole-3-carboxamide] | 1.97 µM | 12.6 µM
22 | Cc1[nH]c(-c2c(F)cccc2F)cc1C(N)=O [Example 147, 5-(2,6-difluorophenyl)-2-methyl-1H-pyrrole-3-carboxamide] | 11.9 µM | 12.2 µM

More lines, now with the values ahead:

Row | Ki [1] | Ki [2] | Compound
23 | 5.68 µM | 4.37 µM | Cc1[nH]c(-c2ccc(-c3ccncc3)cc2)cc1C(N)=O [Example 102, 2-methyl-5-[4-(pyridin-4-yl)phenyl]-1H-pyrrole-3-carboxamide]
24 | 6.78 µM | 5.34 µM | Cc1[nH]c(-c2ccc(-c3cccc(N4CCOCC4)c3)cc2)cc1C(N)=O [Example 105, 2-methyl-5-[3′-(morpholin-4-yl)biphenyl-4-yl]-1H-pyrrole-3-carboxamide]
25 | 2.33 µM | 7.2 µM | Cc1[nH]c(-c2cccc([N+](=O)[O-])c2)cc1C(N)=O [Example 3, 2-methyl-5-(3-nitrophenyl)-1H-pyrrole-3-carboxamide]
26 | 2.88 µM | 3.14 µM | Cc1[nH]c(-c2ccc(NS(C)(=O)=O)cc2)cc1C(N)=O [Example 9, 2-methyl-5-{4-[(methylsulfonyl)amino]phenyl}-1H-pyrrole-3-carboxamide]
27 | 4.6 µM | 13.1 µM | Cc1[nH]c(-c2ccccc2Oc2ccc(C3CCCC3)cc2)cc1C(N)=O [Example 124, 5-[2-(4-cyclopentylphenoxy)phenyl]-2-methyl-1H-pyrrole-3-carboxamide]
28 | 3.96 µM | 3.68 µM | Cc1[nH]c(-c2ccc(-c3ccc(C(=O)N4CCN(C)CC4)cc3)cc2)cc1C(N)=O [Example 114, 2-methyl-5-{4′-[(4-methylpiperazin-1-yl)carbonyl]biphenyl-4-yl}-1H-pyrrole-3-carboxamide]
29 | 2.38 µM | 2.34 µM | Cc1[nH]c(-c2ccc(-c3cccc(C(=O)N(C)C)c3)cc2)cc1C(N)=O [Example 104, 5-[3′-(dimethylcarbamoyl)biphenyl-4-yl]-2-methyl-1H-pyrrole-3-carboxamide]
30 | 10.7 µM | 9.69 µM | Cc1[nH]c(-c2cccc(-c3ccccc3)c2)cc1C(N)=O [Example 150, 5-(biphenyl-3-yl)-2-methyl-1H-pyrrole-3-carboxamide]
31 | 2.77 µM | 4.41 µM | Cc1ccc(CNc2ccccc2-c2cc(C(N)=O)c(C)[nH]2)cc1 [Example 29, 2-methyl-5-{2-[(4-methylbenzyl)amino]phenyl}-1H-pyrrole-3-carboxamide]
32 | 1.63 µM | 6.89 µM | Cc1[nH]c(-c2ccc([N+](=O)[O-])cc2)cc1C(N)=O [Example 7, 2-methyl-5-(4-nitrophenyl)-1H-pyrrole-3-carboxamide]
33 | 4.7 µM | 7.87 µM | Cc1[nH]c(-c2cccc(-c3ccsc3)c2)cc1C(N)=O [Example 152, 2-methyl-5-[3-(thiophen-3-yl)phenyl]-1H-pyrrole-3-carboxamide]
34 | 1.26 µM | 2.16 µM | Cc1cccc(CNc2ccccc2-c2cc(C(N)=O)c(C)[nH]2)c1 [Example 25, 2-methyl-5-{2-[(3-methylbenzyl)amino]phenyl}-1H-pyrrole-3-carboxamide]
35 | 6.9 µM | 5.74 µM | Cc1[nH]c(-c2ccc(-c3cnn(Cc4ccccc4)c3)cc2)cc1C(N)=O [Example 111, 5-[4-(1-benzyl-1H-pyrazol-4-yl)phenyl]-2-methyl-1H-pyrrole-3-carboxamide]
